Assay results published in patent US20050075282A1, “Materials and methods for inhibiting the development of epilepsy” (priority 2003, published 2005).
pEC50, pIC50, pKi: −log10 of the molar value. “And” between values parts separate entries of the source, which are not always exact repeats. Equal entries are not always repeated.

What was measured:
HDAC (293T cells) = test system: T1, HDAC (293T cells); conditions: 293T cells-HDAC assay; reference 6; cited from earlier work
T1 construct: IC50; other: 293T cells-HDAC assay

GABAR = experiment: Whole cell voltage clamp of isolated dentate granule cells (DGCs), response to GABA, after in vivo HDAC inhibitor treatment; set-up: species or system rats
HDAC [1] = conditions: HDAC inhibitors in rats; cited from earlier work
NMDAR = experiment: Whole cell voltage clamp of isolated DGCs, response to NMDA, after in vivo HDAC inhibitor treatment; set-up: species or system rats; conditions: for increase of DGC NMDAR current densities in control rats: treated control vs control (VPA) or control+vehicle (TSA)
HDAC [2] = conditions: cited from earlier work; for pIC50: read-out: IC50 (HDAC inhibition)
AMPAR = experiment: Whole cell voltage clamp of isolated DGCs, response to kainate + cyclothiazide, after in vivo HDAC inhibitor treatment; set-up: species or system rats
[3] = test system: HeLa cell nuclear extract HDACs; conditions: Enhances histone acetylation in HeLa cell nuclear extract; reference 4; cited from earlier work
[4] = target: purified nuclear histone deacetylase; conditions: Calf thymus, reference 2; cited from earlier work
[5] = test system: rats post pilocarpine-induced status epilepticus; experiment: Chronic epilepsy monitoring (video) after pilocarpine-induced SE; type: in vivo; conditions: TSA injected three times, 2 hr, 6 hr and 24 hr post SE; seven weeks monitoring; vs vehicle
Experimental: Trichostatin A (TSA) administration. TSA was administered in the lateral ventricle {−0.8 mm A-P; 1.5 LAT; 3.2 DOWN (Paxinos and Watson 1982)} one hour prior to pilocarpine injection to induce SE. The cannula guide had been previously implanted using stereotaxic surgery two weeks prior to experiment to allow animals properly recovery. TSA (5 μl) was delivered via tubing connected to a pump at a concentration of 5 μg/ml (vehicle, 0.9% saline) at a rate of 1 μl/min for 5 minutes through 29-gauge tubing attached to the cannula. Successful delivery of TSA was verified by histological examination of cannula position and a moving mark inside the tubing. In additional studies (FIGS. 5 and 6), TSA was administered I.P., 2, 6, and 24 hrs post SE.
Pilocarpine-induced status epilepticus. Rats were injected with (−) scopolamine methyl nitrate (1 mg/kg body weight, s.c.) 30 min prior to pilocarpine hydrochloride (405 mg/kg body weight, s.c.). Controls received a sub-convulsive dosage of pilocarpine (40 mg/kg, s.c.). After one hour of SE, diazepam was used to stop SE.
Chronic epilepsy monitoring in TSA treatment. […] This effect lasted for at least 5-7 days, during which time animals had no behavioral seizures (latent period). Animals sequentially developed spontaneous seizures (epilepsy). […] Animals were video monitored for 7 weeks post SE, and the frequency and severity of seizures was quantified.

[6] = DGCs 1 Wk post SE, VPA study (FIG. 2B)
[7] = control rats, VPA in drinking water
[8] = DGCs 1 Wk post SE, TSA in the lateral ventricle
[9] = control rats, TSA in the lateral ventricle

For CCCC(CCC)C(=O)[O-].[Na+] [VPA, 2-propyl-pentanoic acid-sodium salt], the pIC50 (HDAC (293T cells)) is listed as 3.00 to 3.15, the “GABAR Charge transfer density” value (GABAR; DGCs 1 Wk post SE) is listed as 217.0 ± 16.4 (n = 73) (msec) × (nA)/(pF) and the “GABAR Desensitization %” value (GABAR; DGCs 1 Wk post SE) is listed as 76.5 ± 2.1 (n = 73) %. For the same compound, the GABAR current densities (GABAR; [6]) was 234.6±12.7 pA/pF, the “GABAR Current density” value (GABAR; DGCs 1 Wk post SE, GABA 1 mM) was 234.6 ± 12.7 (n = 74) Pa/pF and the GABAR current densities (GABAR; control rats + VPA (FIG. 2B)) was 243.04±19.25 pA/pF. The “GABAR Charge transfer density” value (GABAR; [7]) was 239.8 ± 27.8 (n = 22) (msec) × (nA)/(pF), the “GABAR Current density” value (GABAR; control rats, VPA in drinking water 1.0 g/kg daily, GABA 1 mM) was 243.0 ± 19.3 (n = 22) Pa/pF and the “GABAR Desensitization %” value (GABAR; control rats, VPA in drinking water, 2-second agonist application) was 70.3 ± 4.2 (n = 22) %. The pEC50 (HDAC [1]) was 3.15 to 3.52, the “NMDAR Desensitization %” value (NMDAR; DGCs 1 Wk post SE) was 43.9 ± 2.7 (n = 61) % and the “NMDAR Desensitization tau” value (NMDAR; DGCs 1 Wk post SE) was 768.6 ± 51.1 (n = 51) Msec. The “NMDAR Current density” value (NMDAR; DGCs 1 Wk post SE, NMDA 100 μM, Mg-free) was 74.0 ± 9.5 (n = 62) Pa/pF, the NMDAR current densities (NMDAR; control rats + VPA (FIG. 4)) was 102.1±17.5 pA/pF and the “NMDAR Charge transfer density” value (NMDAR; [7]) was 123.2 ± 18.0 (n = 25) (msec) × (nA)/(pF). The “NMDAR Desensitization %” value (NMDAR; [7]) was 35.6 ± 4.6 (n = 25) %, the “NMDAR Desensitization tau” value (NMDAR; [7]) was 669.8 ± 77.3 (n = 21) Msec and the “increase of DGC NMDAR current densities in control rats” value (NMDAR) was 49.9%. For the same compound, the pIC50 (HDAC [2]) was 3.40, the “AMPAR Charge transfer density” value (AMPAR; DGCs 1 Wk post SE) was 459.8 ± 30.8 (n = 66) (msec) × (nA)/(pF) and the “effect on reduced AMPAR function / current densities” value (AMPAR; DGCs 1 Wk post SE) was “partially restore”. For the same compound, the “AMPAR Charge transfer density” value (AMPAR; [7]) was 780.4 ± 53.3 (n = 26) (msec) × (nA)/(pF) and the pKi [3] was 3.29.
In the case of CCCC(CCC)C(N)=O [VPM, valpromide], the “GABAR Charge transfer density” value (GABAR; DGCs 1 Wk post SE) was 249.5 ± 41.5 (n = 26) (msec) × (nA)/(pF), the “GABAR Desensitization %” value (GABAR; DGCs 1 Wk post SE) was 77.3 ± 2.7 (n = 27) % and the GABAR current densities (GABAR; [6]) was 218.63±33.2 pA/pF. For the same compound, the “GABAR Current density” value (GABAR; DGCs 1 Wk post SE, GABA 1 mM) was 218.6 ± 33.2 (n = 30) Pa/pF, the “NMDAR Charge transfer density” value (NMDAR; DGCs 1 Wk post SE) was 180.0 ± 22.4 (n = 26) (msec) × (nA)/(pF) and the “NMDAR Desensitization %” value (NMDAR; DGCs 1 Wk post SE) was 46.7 ± 4.5 (n = 25) %. For the same compound, the “NMDAR Desensitization tau” value (NMDAR; DGCs 1 Wk post SE) was 787.8 ± 131.5 (n = 23) Msec, the NMDAR current densities (NMDAR; DGCs 1 Wk post SE, VPA study (FIG. 4)) was 141.1±17.3 pA/pF and the “AMPAR Charge transfer density” value (AMPAR; DGCs 1 Wk post SE) was 615.3 ± 42.3 (n = 27) (msec) × (nA)/(pF). The AMPAR current densities (AMPAR; DGCs 1 Wk post SE, VPA study (FIG. 3)) was 302.5±20.2 pA/pF.
In the case of CCCC(=O)[O-].[Na+] [Sodium Butyrate, Sodium butyrate], the pIC50 (HDAC (293T cells)) is given as 3.40 to 3.52, the pEC50 (HDAC [1]) is given as 3.30 to 3.70 and the pIC50 [4] is given as 3.60. For the same compound, the pIC50 (HDAC [2]) was 2.82.
In the case of CC(/C=C/C(=O)NO)=C\[C@@H](C)C(=O)c1ccc(N(C)C)cc1 [TSA, Trichostatin A], the GABAR Current density (GABAR; DGCs 1 Wk post SE, 1-hr post SE TSA i.p. injection (FIG. 6)) was 235.1±62.3 pA/pF, the “GABAR Charge transfer density” value (GABAR; [8]) was 185.9 ± 18.4 (n = 30) (msec) × (nA)/(pF) and the “GABAR Desensitization %” value (GABAR; [8]) was 83.1 ± 2.0 (n = 30) %. For the same compound, the “GABAR Current density” value (GABAR; DGCs 1 Wk post SE, TSA in the lateral ventricle one hour prior to pilocarpine, GABA 1 mM) was 225.6±17.3 pA/pF and 225.6 ± 17.3 (n = 32) pA/pF, the “GABAR Charge transfer density” value (GABAR; [9]) was 169.7 ± 14.2 (n = 37) (msec) × (nA)/(pF) and the “GABAR Desensitization %” value (GABAR; [9]) was 83.8 ± 1.5 (n = 36) %. For the same compound, the “GABAR Current density” value (GABAR; control rats, TSA in the lateral ventricle, GABA 1 mM) was 217.9±12.8 pA/pF and 217.9 ± 12.8 (n = 36) pA/pF, the pEC50 (HDAC [1]) was 6.30 to 7.30 and the “effect on NMDAR current density” value (NMDAR; DGCs 1 Wk post SE, TSA i.p. post SE (FIG. 6)) was “no significant effect”. For the same compound, the “NMDAR Charge transfer density” value (NMDAR; [8]) was 153.7 ± 16.6 (n = 31) (msec) × (nA)/(pF), the “NMDAR Current density” value (NMDAR; [8]) was 117.3±16.0 pA/pF and 117.3 ± 16.0 (n = 31) pA/pF and the “NMDAR Desensitization %” value (NMDAR; [8]) was 38.5 ± 3.5 (n = 31) %. The “NMDAR Desensitization tau” value (NMDAR; [8]) was 1222.1 ± 173.8 (n = 28) msec, the “NMDAR Charge transfer density” value (NMDAR; [9]) was 196.2 ± 14.4 (n = 39) (msec) × (nA)/(pF) and the “NMDAR Desensitization %” value (NMDAR; [9]) was 27.1 ± 2.2 (n = 39) %. The “NMDAR Desensitization tau” value (NMDAR; [9]) was 1262.6 ± 197.5 (n = 37) msec, the “NMDAR Current density” value (NMDAR; control rats, TSA in the lateral ventricle, NMDA 100 μM, Mg-free) was 121.0±9.0 pA/pF and 121.0 ± 9.0 (n = 39) pA/pF and the “increase of DGC NMDAR current densities in control rats” value (NMDAR) was 83.1%. For the same compound, the “IC50 / working range (HDAC inhibition)” value (HDAC [2]; in vitro) was “nM affinity range”, the “increase of AMPAR current densities in control rats” value (AMPAR; Control+TSA vs Control+vehicle) was 43.8% and the “effect on reduced AMPAR function / current densities” value (AMPAR; DGCs 1 Wk post SE) was “totally prevented”. For the same compound, the “AMPAR Charge transfer density” value (AMPAR; [8]) was 703.3 ± 49.9 (n = 33) (msec) × (nA)/(pF), the “AMPAR Charge transfer density” value (AMPAR; [9]) was 907.6 ± 57.7 (n = 41) (msec) × (nA)/(pF) and the “reduction of average spontaneous seizure frequency” value [5] was “more than 70%”.
